According to patent publication US20250170130A1, “MODULATORS OF MYC FAMILY PROTO-ONCOGENE PROTEIN” (Nalo Therapeutics, priority 2022, published 2025):
Read-outs that look alike come from different tables or passages of the source.

Key:
MycN = biological target: T1, MycN (Homo sapiens, UniProt P04198); assay: Degradation of MycN protein in SK-N-BE(2) cells, JESS/Western blot of lysates; assay type: cell-based; details: SKNBE2, 24 h; for Dmax at 1 µM: read-out: % Degradation of MycN (SKNBE2) 24 h, 1 μM; for Dmax at 3 µM: read-out: % Degradation of MycN (SKNBE2) 24 h, 3 μM; for Dmax at 6 µM: read-out: % Degradation of MycN (SKNBE2) 24 h, 6 μM; for Dmax at 0.5 µM: read-out: % Degradation of MycN (SKNBE2) 24 h, 0.5 μM
T1 construct: endogenous in cells; host or cells: SK-N-BE(2)
T1 sequence (P04198 1-464): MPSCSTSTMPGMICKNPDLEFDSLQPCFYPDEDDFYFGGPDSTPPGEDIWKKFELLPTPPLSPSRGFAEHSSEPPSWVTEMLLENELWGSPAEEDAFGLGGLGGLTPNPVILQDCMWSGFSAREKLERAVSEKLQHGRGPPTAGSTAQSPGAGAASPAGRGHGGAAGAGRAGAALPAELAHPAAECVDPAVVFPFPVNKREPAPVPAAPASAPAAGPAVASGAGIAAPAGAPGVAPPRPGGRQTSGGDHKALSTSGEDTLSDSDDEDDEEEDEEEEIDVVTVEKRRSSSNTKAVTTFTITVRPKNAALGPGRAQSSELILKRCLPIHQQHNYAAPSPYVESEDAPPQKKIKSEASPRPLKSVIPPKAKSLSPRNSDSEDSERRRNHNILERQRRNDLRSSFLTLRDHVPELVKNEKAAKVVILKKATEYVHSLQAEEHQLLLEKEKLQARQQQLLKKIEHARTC
Description: (§1) For L363 cells (suspension), 1E6 cells were plated into each well of a 6 well plate. For SK-N-BE(2) cells (adherent), 5E5 cells were plated into each well of a 6 well dish. Cells were cultured for 24 hrs then treated with exemplary compounds at 0.1, 0.5, 1.0, 3.0 and 6.0 mM final assay concentrations plus DMSO control. All compounds were diluted to 10 mM in DMSO. Cells were treated with the compound for 24 hrs, then for both cell types, media containing cells were removed from wells into a 15 ml centrifuge tube, and remaining adherent SK-N-BE(2) cells were also scraped from the wells into the appropriate tubes. Tubes were centrifuged, cells were washed with PBS then re-centrifuged to pellet cells. A RIPA buffer cocktail was added to the cells on ice for 5 mins. Cell lysates were clarified by centrifugation and stored at −80 degrees until required. BCA assay was performed on each lysate to determine the protein concentration.
(§2) Once an appropriate lysate concentration and antibody concentration was determined, samples were screened in the JESS technology (Protein Simple, San Jose, CA—https://www.proteinsimple.com/jess.html).
(§3) Target protein antibodies (n-myc and c-myc) were detected in the chemi-luminescence channel and loading controls (tubulin and GAPDH) were detected using a Near Infra Red (NIR) labeled secondary antibody.
For SK-N-EB2 adherent cells, 5E5 cells in 1.9 mls media were plated into 6 well dishes and incubated for 24 hrs. Exemplary compounds were added (100 ul, 1 in 20 dilution in media) to each well (final assay concentration 6, 3, 1 and […]) together with DMSO control wells and incubated for 24 hrs. Cells were scrapped off the plate, centrifuged, washed with PBS, centrifuged, then a RIPA buffer cocktail added to the cells (100 ul), centrifuged and stored at −80 for later analysis. For L363 suspension cells, 1E6 cells were plated into 24 well dishes (950 ul media) and incubated for 24 hrs. Exemplary compounds were added (50 ul, 1 in 20 dilution in media) to each well (final assay concentration 6, 3, 1 and […]) together with DMSO control wells and incubated for 24 hrs. Cells were aspirated into tubes, centrifuged, washed with PBS, centrifuged, then a RIPA buffer cocktail added to the cells (100 ul), centrifuged and stored at −80 for later analysis.
(§4) For Western blot, a BCA (total protein) assay was run on all samples, these were then run in batches of 5 compounds plus control (DMSO) on each Western blot run—n-myc and c-myc were run in separate experiments in the chemiluminescence channel. Both tubulin and GAPDH were run as loading controls in all lanes in the near infra red channel.

MycC = biological target: T2, MycC (Homo sapiens, UniProt P01106); assay: Degradation of MycC protein in L363 cells, JESS/Western blot of lysates; assay type: cell-based; details: L-363, 24 h; for Dmax at 3 µM: read-out: % Degradation of MycC (L-363) 24 h, 3 μM; for Dmax at 6 µM: read-out: % Degradation of MycC (L-363) 24 h, 6 μM; for Dmax at 0.5 µM: read-out: % Degradation of MycC (L-363) 24 h, 0.5 μM; for Dmax at 1 µM: read-out: % Degradation of MycC (L-363) 24 h, 1 μM
T2 construct: endogenous in cells; host or cells: L363
Description: as §1, with “Cells were cultured for 24 hrs then treated with exemplary compounds at 0.1, 0.5, 1.0, 3.0 and 6.0 mM final assay concentrations plus DMSO control.” left out
as §2, §3
For SK-N-EB2 adherent cells, 5E5 cells in 1.9 mls media were plated into 6 well dishes and incubated for 24 hrs. […] Cells were scrapped off the plate, centrifuged, washed with PBS, centrifuged, then a RIPA buffer cocktail added to the cells (100 ul), centrifuged and stored at −80 for later analysis. For L363 suspension cells, 1E6 cells were plated into […] (950 ul media) and incubated for 24 hrs. […] Cells were aspirated into tubes, centrifuged, washed with PBS, centrifuged, then a RIPA buffer cocktail added to the cells (100 ul), centrifuged and stored at −80 for later analysis.
as §4

T2 sequence (P01106 whole entry): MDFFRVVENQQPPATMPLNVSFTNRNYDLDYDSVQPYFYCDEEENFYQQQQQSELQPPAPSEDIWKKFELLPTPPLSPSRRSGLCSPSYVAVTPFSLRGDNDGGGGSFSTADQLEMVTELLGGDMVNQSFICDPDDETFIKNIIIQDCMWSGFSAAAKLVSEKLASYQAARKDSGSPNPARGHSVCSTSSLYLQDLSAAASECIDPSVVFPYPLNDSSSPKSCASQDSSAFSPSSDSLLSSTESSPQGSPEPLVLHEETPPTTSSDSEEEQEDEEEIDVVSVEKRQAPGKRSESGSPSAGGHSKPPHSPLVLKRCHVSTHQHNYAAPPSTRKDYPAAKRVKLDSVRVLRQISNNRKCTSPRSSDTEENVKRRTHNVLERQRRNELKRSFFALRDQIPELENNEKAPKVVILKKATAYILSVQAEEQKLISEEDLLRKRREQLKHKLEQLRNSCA

SMILES: c1cc(Nc2cc(C3CCCC3)[nH]n2)nc(N2CC3(CN4CCC4)CC2C3)n1 [Compound 76, 2-[4-(Azetidin-1-ylmethyl)-2-azabicyclo[2.1.1]hexan-2-yl]-N-(5-cyclopentyl-1H-pyrazol-3-yl)pyrimidin-4-amine]
- Dmax at 1 µM (MycN): < 20%
- Dmax at 3 µM (MycN): 80 to 100%
- Dmax at 6 µM (MycN): 80 to 100%
- Dmax at 3 µM (MycC): < 20%
- Dmax at 6 µM (MycC): 80 to 100%

SMILES: NCC1CCN(c2nccc(Nc3cc(C4CC4)[nH]n3)n2)CC1 [Compound 10, 2-(4-(aminomethyl)piperidin-1-yl)-N-(5-cyclopropyl-1H-pyrazol-3-yl)pyrimidin-4-amine]
- Dmax at 1 µM (MycN; SKNBE2 cells, 24 h, 1 μM): 20 to 49%
- Dmax at 3 µM (MycN; SKNBE2 cells, 24 h, 3 μM): 80 to 100%
- Dmax at 6 µM (MycN; SKNBE2 cells, 24 h, 6 μM): 80 to 100%
- Dmax at 0.5 µM (MycC; L-363 cells, 24 h): < 20%
- Dmax at 1 µM (MycC; L-363 cells, 24 h): < 20%
- Dmax at 6 µM (MycC; L-363 cells, 24 h, 6 μM): 20 to 49%

SMILES: CN1C[C@H]2CN(c3nccc(Nc4cc(C5CC5)[nH]n4)n3)C[C@H]21 [Compound 40, N-(5-Cyclopropyl-1H-pyrazol-3-yl)-2-[(1S,5S)-6-methyl-3,6-diazabicyclo[3.2.0]heptan-3-yl]pyrimidin-4-amine]
- Dmax at 3 µM (MycN; SKNBE2 cells, 24 h, 3 μM): < 20%
- Dmax at 6 µM (MycN; SKNBE2 cells, 24 h, 6 μM): < 20%
- Dmax at 0.5 µM (MycC; L-363 cells, 24 h): < 20%
- Dmax at 1 µM (MycC; L-363 cells, 24 h): < 20%
- Dmax at 3 µM (MycC; L-363 cells, 24 h, 3 μM): < 20%

SMILES: O=S1(=O)CCN(CC23CC(C2)N(c2nccc(Nc4cc(C5CCCC5)[nH]n4)n2)C3)CC1 [Compound 73, N-(5-Cyclopentyl-1H-pyrazol-3-yl)-2-[4-[(1,1-dioxo-1,4-thiazinan-4-yl)methyl]-2-azabicyclo[2.1.1]hexan-2-yl]pyrimidin-4-amine]
- Dmax at 0.5 µM (MycN; SKNBE2 cells, 24 h): < 20%
- Dmax at 1 µM (MycN; SKNBE2 cells, 24 h, 1 μM): 20 to 49%
- Dmax at 3 µM (MycN; SKNBE2 cells, 24 h, 3 μM): 50 to 79%
- Dmax at 6 µM (MycN; SKNBE2 cells, 24 h, 6 μM): 80 to 100%
- Dmax at 3 µM (MycC; L-363 cells, 24 h, 3 μM): 20 to 49%
- Dmax at 6 µM (MycC; L-363 cells, 24 h, 6 μM): 80 to 100%

SMILES: NCC1CN(c2nccc(Nc3cc(C4CCCC4)[nH]n3)n2)CC(F)(F)C1 (stereo not drawn) [Compound 115, 2-[5-(Aminomethyl)-3,3-difluoro-1-piperidyl]-N-(5-cyclopentyl-1H-pyrazol-3-yl)pyrimidin-4-amine]
- Dmax at 0.5 µM (MycN; SKNBE2 cells, 24 h): 20 to 49%
- Dmax at 1 µM (MycN; SKNBE2 cells, 24 h, 1 μM): 50 to 79%
- Dmax at 3 µM (MycN; SKNBE2 cells, 24 h, 3 μM): 80 to 100%
- Dmax at 6 µM (MycN; SKNBE2 cells, 24 h, 6 μM): 80 to 100%
- Dmax at 3 µM (MycC; L-363 cells, 24 h, 3 μM): 80 to 100%
- Dmax at 6 µM (MycC; L-363 cells, 24 h, 6 μM): 80 to 100%

SMILES: NCC12CCC(C1)N(c1nccc(Nc3cc(C4CC4)[nH]n3)n1)C2 (stereo not drawn) [Compound 113, 2-[4-(Aminomethyl)-2-azabicyclo[2.2.1]heptan-2-yl]-N-(5-cyclopropyl-1H-pyrazol-3-yl)pyrimidin-4-amine]
- Dmax at 0.5 µM (MycN; SKNBE2 cells, 24 h): 80 to 100%
- Dmax at 1 µM (MycN; SKNBE2 cells, 24 h, 1 μM): 80 to 100%
- Dmax at 3 µM (MycN; SKNBE2 cells, 24 h, 3 μM): 80 to 100%
- Dmax at 6 µM (MycN; SKNBE2 cells, 24 h, 6 μM): 80 to 100%
- Dmax at 0.5 µM (MycC; L-363 cells, 24 h): 80 to 100%
- Dmax at 1 µM (MycC; L-363 cells, 24 h): 80 to 100%
- Dmax at 3 µM (MycC; L-363 cells, 24 h, 3 μM): 80 to 100%
- Dmax at 6 µM (MycC; L-363 cells, 24 h, 6 μM): 80 to 100%

SMILES: NCC12CC(C1)N(c1nccc(Nc3cc(C4CCCC4)[nH]n3)n1)C2 [Compound 66, 2-[4-(aminomethyl)-2-azabicyclo[2.1.1]hexan-2-yl]-N-(5-cyclopentyl-1H-pyrazol-3-yl)pyrimidin-4-amine]
- Dmax at 1 µM (MycN; SKNBE2 cells, 24 h, 1 μM): 80 to 100%
- Dmax at 3 µM (MycN; SKNBE2 cells, 24 h, 3 μM): 80 to 100%
- Dmax at 6 µM (MycN; SKNBE2 cells, 24 h, 6 μM): 80 to 100%
- Dmax at 0.5 µM (MycC; L-363 cells, 24 h): < 20%
- Dmax at 3 µM (MycC; L-363 cells, 24 h, 3 μM): 80 to 100%
- Dmax at 6 µM (MycC; L-363 cells, 24 h, 6 μM): 80 to 100%

SMILES: CNC[C@H]1CCCN(c2nccc(Nc3cc(C4CC4)[nH]n3)n2)C1 [Compound 16, N-(5-Cyclopropyl-1H-pyrazol-3-yl)-2-[(3R)-3-(methylaminomethyl)-1-piperidyl]pyrimidin-4-amine]
- Dmax at 0.5 µM (MycN; SKNBE2 cells, 24 h): < 20%
- Dmax at 1 µM (MycN; SKNBE2 cells, 24 h, 1 μM): 80 to 100%
- Dmax at 3 µM (MycN; SKNBE2 cells, 24 h, 3 μM): 80 to 100%
- Dmax at 6 µM (MycN; SKNBE2 cells, 24 h, 6 μM): 80 to 100%
- Dmax at 0.5 µM (MycC; L-363 cells, 24 h): < 20%
- Dmax at 1 µM (MycC; L-363 cells, 24 h): < 20%
- Dmax at 3 µM (MycC; L-363 cells, 24 h, 3 μM): < 20%
- Dmax at 6 µM (MycC; L-363 cells, 24 h, 6 μM): < 20%

SMILES: c1cc(Nc2cc(C3CCCC3)[nH]n2)nc(N2CCC(C3CNC3)C2)n1 (stereo not drawn) [Compound 28, 2-[3-(azetidin-3-yl)pyrrolidin-1-yl]-N-(5-cyclopentyl-1H-pyrazol-3-yl)pyrimidin-4-amine]
- Dmax at 1 µM (MycN; SKNBE2 cells, 24 h, 1 μM): 80 to 100%
- Dmax at 3 µM (MycN; SKNBE2 cells, 24 h, 3 μM): 80 to 100%
- Dmax at 6 µM (MycN; SKNBE2 cells, 24 h, 6 μM): 80 to 100%
- Dmax at 0.5 µM (MycC; L-363 cells, 24 h): < 20%
- Dmax at 1 µM (MycC; L-363 cells, 24 h): < 20%
- Dmax at 6 µM (MycC; L-363 cells, 24 h, 6 μM): 50 to 79%

SMILES: c1cc(Nc2cc(C3CC3)[nH]n2)nc(N2CC(C3CNC3)C2)n1 [Compound 64, 2-[3-(Azetidin-3-yl)azetidin-1-yl]-N-(5-cyclopropyl-1H-pyrazol-3-yl)pyrimidin-4-amine]
- Dmax at 0.5 µM (MycN; SKNBE2 cells, 24 h): < 20%
- Dmax at 3 µM (MycN; SKNBE2 cells, 24 h, 3 μM): < 20%
- Dmax at 6 µM (MycN; SKNBE2 cells, 24 h, 6 μM): 20 to 49%
- Dmax at 1 µM (MycC; L-363 cells, 24 h): < 20%
- Dmax at 3 µM (MycC; L-363 cells, 24 h, 3 μM): 20 to 49%
- Dmax at 6 µM (MycC; L-363 cells, 24 h, 6 μM): 20 to 49%

SMILES: CC(F)(F)CNCC12CC(C1)N(c1nccc(Nc3cc(C4CCCC4)[nH]n3)n1)C2 [Compound 103, N-(5-Cyclopentyl-1H-pyrazol-3-yl)-2-[4-[(2,2-difluoropropylamino)methyl]-2-azabicyclo[2.1.1]hexan-2-yl]pyrimidin-4-amine]
- Dmax at 0.5 µM (MycN; SKNBE2 cells, 24 h): < 20%
- Dmax at 1 µM (MycN; SKNBE2 cells, 24 h, 1 μM): 20 to 49%
- Dmax at 3 µM (MycN; SKNBE2 cells, 24 h, 3 μM): 80 to 100%
- Dmax at 6 µM (MycN; SKNBE2 cells, 24 h, 6 μM): 80 to 100%
- Dmax at 0.5 µM (MycC; L-363 cells, 24 h): < 20%
- Dmax at 1 µM (MycC; L-363 cells, 24 h): < 20%
- Dmax at 6 µM (MycC; L-363 cells, 24 h, 6 μM): 80 to 100%
